Here are results for three molecules from patent US20020127544A1, “Modulators of US 28” (priority 2000, published 2002).

Structures can show the parent of a compound that is named as a salt. Where two headings read alike, the source gives them in different places.

Experiment [1] concerns the target T1, US28 (Human cytomegalovirus, UniProt P69332). As to the kind of experiment: 125I-fractalkine radioligand binding to US28 on US28-NSO cells. On the set-up: host or cells: mouse NSO cells (US28-NSO); species or system Cytomegalovirus (CMV). As to the method:
The US28 expressing cells used in most assays consist of a mouse cell line (NSO cells from ATCC) stably expressing transfected US28 cDNA under the control of a CMV promoter (from R & D Systems). These cells were cultured in IMDM-5% FBS, and harvested when the concentration was between 0.5-1.0×10^6 cells/mL. Some assays were performed with adherent human 293 cells (US28-293 cells) or membranes. The cells were centrifuged and resuspended in assay buffer (20 mM HEPES, 140 mM NaCl, 1 mM CaCl2, 5 mM MgCl2, and with 0.2% bovine serum albumin) to a concentration of 5.6×10^6 cells/mL. Using the Multi-Probe automated system, set up with 8 assay plates at a time, first 0.09 mL of cells was added to the assay plates containing the compounds. The final concentration of the compounds was 5 μg/mL each. Then 0.09 mL of ^1251I-fractalkine diluted in assay buffer (final concentration ˜2-10fM, with ˜30,000 cpm per well) was added, the plates sealed and incubated for approximately 3 hours at 4 degrees C on a shaker platform. […] Scintillation fluid (35 μL) was added to all wells, the plates were sealed and counted in a Top Count scintillation counter. […]
Methiothepin mesylate (from the RBI division of Sigma Chemical Co., St. Louis, Mo., USA, Catalog No. M-149) and octoclothepin maleate (from RBI, Catalog No. O-111) were evaluated in the assays described in Examples 1 and 2. […]

Experiment [2] concerns the target T1, US28. The experiment is described as follows: cytoplasmic calcium mobilization in US28-293 cells. The format is cell-based, Cytomegalovirus (CMV). On the set-up: expressed in transfected cells; host or cells: human 293 cells (US28-293). The following applies: INDO-1 dye, mimicking the action of fractalkine in binding and signaling (FIG. 2). As to the method: For each test, 1×10^6 cells were incubated at 37° C. in the cuvette of a PTI spectrometer, and the ratio of 410/490 nm emission plotted over time (typically 2-3 minutes), with compounds added at 5 seconds, followed by fractalkine at 60 seconds. […] Compounds which inhibited fractalkine binding were tested in this assay for the effects on Ca2+ in this system.
Methiothepin mesylate (from the RBI division of Sigma Chemical Co., St. Louis, Mo., USA, Catalog No. M-149) and octoclothepin maleate (from RBI, Catalog No. O-111) were evaluated in the assays described in Examples 1 and 2. The IC50 values were 0.3 μM for methiothepin mesylate and 0.7 μM for octoclothepin maleate.

Experiment [3] addresses T1, US28. On the set-up: host or cells: mouse NSO cells (US28-NSO). The following applies: CX3C chemokine binding to US28; read-out: KI, binding affinity to US28; cited from earlier work.

T1 sequence (P69332 whole entry): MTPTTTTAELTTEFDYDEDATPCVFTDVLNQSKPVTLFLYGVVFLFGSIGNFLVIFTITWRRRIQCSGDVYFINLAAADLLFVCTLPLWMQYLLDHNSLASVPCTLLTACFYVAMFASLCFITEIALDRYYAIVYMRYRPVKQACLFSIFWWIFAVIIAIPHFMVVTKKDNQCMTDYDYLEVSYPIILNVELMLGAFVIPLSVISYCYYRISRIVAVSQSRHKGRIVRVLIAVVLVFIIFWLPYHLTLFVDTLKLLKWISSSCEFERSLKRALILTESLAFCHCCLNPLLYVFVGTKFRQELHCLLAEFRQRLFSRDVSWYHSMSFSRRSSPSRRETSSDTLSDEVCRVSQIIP

Take `CSc1ccc2c(c1)C(N1CCN(C)CC1)Cc1ccccc1S2` (centres unmarked) [methiothepin mesylate, methiothepin]: in experiment [1], the IC50 is 300 nM. In addition, the “mode of action in calcium mobilization” value in experiment [2] is “competitive agonists”.

On to `CN1CCN(C2Cc3ccccc3Sc3ccc(Cl)cc32)CC1.O=C(O)/C=C\C(=O)O` (centres unmarked) [octoclothepin maleate, octoclothepin], for which the IC50 in experiment [1] (dose response against fractalkine on US28-NSO cells (FIG. 1), read-out: IC50, inhibition of fractalkine binding to US28) amounted to 700 nM. In addition, in experiment [2], the “mode of action in calcium mobilization” value is “competitive agonists”.

B1: Fractalkine: the CX3C chemokine, ligand of US28 (protein, UniProt P78423 25-397, looked up)
Fractalkine: QHHGVTKCNITCSKMTSKIPVALLIHYQQNQASCGKRAIILETRQHRLFCADPKEQWVKDAMQHLDRQAAALTRNGGTFEKQIGEVKPRTTPAAGGMDESVVLEPEATGESSSLEPTPSSQEAQRALGTSPELPTGVTGSSGTRLPPTPKAQDGGPVGTELFRVPPVSTAATWQSSAPHQPGPSLWAEAKTSEAPSTQDPSTQASTASSPAPEENAPSEGQRVWGQGQSPRPENSLEREEMGPVPAHTDAFQDWGPGSMAHVSVVPVSSEGTPSREPVASGSWTPKAEEPIHATMDPQRLGVLITPVPDAQAATRRQAVGLLAFLGLLFCLGVAMFTYQSLQGCPRKMAGEMAEGLRYIPRSCGSNSYVLVPV
B1: in experiment [3], the Ki is approximately 0.05 nM.
